From ChEMBL document CHEMBL3046153, “Synthesis and antimicrobial evaluation of 4,5-diaryl-2-[4-(t-amino)-2-butynyl]-2,4-dihydro-3H-1,2,4-triazol-3-ones” (2012)
In brackets after ≈: the same amount, converted by molar mass.

How the values were obtained:
Format in all cases: functional
[1] = test system: Candida albicans; assay: Antifungal activity against Candida albicans clinical isolate after 24 hr by NCCLS broth macrodilution method
[2] = test system: Pseudomonas aeruginosa; assay: Antibacterial activity against Pseudomonas aeruginosa ATCC 27953 after 16 to 18 hr by NCCLS broth macrodilution method
[3] = test system: Escherichia coli; assay: Antibacterial activity against Escherichia coli ATCC 25922 after 16 to 18 hr by NCCLS broth macrodilution method
[4] = test system: Staphylococcus aureus; assay: Antibacterial activity against Staphylococcus aureus ATCC 29213 after 16 to 18 hr by NCCLS broth macrodilution method

MIC [1] [µg/mL] | MIC [2] [µg/mL] | MIC [3] [µg/mL] | MIC [4] [µg/mL] | Structure (SMILES)
25 (≈ 64.7 µM) | 100 (≈ 259 µM) | 50 (≈ 129 µM) | 12.5 (≈ 32.3 µM) | CC1CCCCN1CC#CCn1nc(-c2ccccc2)n(-c2ccccc2)c1=O (stereo unspecified)
50 (≈ 115 µM) | 100 (≈ 229 µM) | 50 (≈ 115 µM) | 25 (≈ 57.3 µM) | CC1CCCN(CC#CCn2nc(-c3ccccc3)n(-c3cccc4ccccc34)c2=O)C1 (stereo unspecified)
25 (≈ 57.5 µM) | 50 (≈ 115 µM) | 25 (≈ 57.5 µM) | 25 (≈ 57.5 µM) | CC1CCCC(C)N1CC#CCn1nc(-c2ccc(Cl)cc2)n(-c2ccccc2)c1=O (stereo unspecified)
12.5 (≈ 31.2 µM) | 25 (≈ 62.4 µM) | 6.25 (≈ 15.6 µM) | 6.25 (≈ 15.6 µM) | O=c1n(CC#CCN2CCCCCCC2)nc(-c2ccccc2)n1-c1ccccc1
25 (≈ 61.4 µM) | 100 (≈ 246 µM) | 50 (≈ 123 µM) | 12.5 (≈ 30.7 µM) | O=c1n(CC#CCN2CCCCC2)nc(-c2ccc(Cl)cc2)n1-c1ccccc1
12.5 (≈ 32.3 µM) | 50 (≈ 129 µM) | 12.5 (≈ 32.3 µM) | 6.25 (≈ 16.2 µM) | O=c1n(CC#CCN2CCCCCC2)nc(-c2ccccc2)n1-c1ccccc1
25 (≈ 62.4 µM) | 50 (≈ 125 µM) | 12.5 (≈ 31.2 µM) | 12.5 (≈ 31.2 µM) | CC1CCCC(C)N1CC#CCn1nc(-c2ccccc2)n(-c2ccccc2)c1=O (stereo unspecified)
25 (≈ 57.3 µM) | 50 (≈ 115 µM) | 50 (≈ 115 µM) | 25 (≈ 57.3 µM) | O=c1n(CC#CCN2CCCCCC2)nc(-c2ccccc2)n1-c1cccc2ccccc12
12 (≈ 26.6 µM) | 50 (≈ 111 µM) | 25 (≈ 55.5 µM) | 50 (≈ 111 µM) | O=c1n(CC#CCN2CCCCCCC2)nc(-c2ccccc2)n1-c1cccc2ccccc12
25 (≈ 69.7 µM) | 100 (≈ 279 µM) | 50 (≈ 139 µM) | 25 (≈ 69.7 µM) | O=c1n(CC#CCN2CCCC2)nc(-c2ccccc2)n1-c1ccccc1
50 (≈ 111 µM) | 100 (≈ 222 µM) | 50 (≈ 111 µM) | 50 (≈ 111 µM) | CC1CCCC(C)N1CC#CCn1nc(-c2ccccc2)n(-c2cccc3ccccc23)c1=O (stereo unspecified)
50 (≈ 119 µM) | 100 (≈ 238 µM) | 50 (≈ 119 µM) | 12.5 (≈ 29.7 µM) | CC1CCCCN1CC#CCn1nc(-c2ccc(Cl)cc2)n(-c2ccccc2)c1=O (stereo unspecified)
12.5 (≈ 32.3 µM) | 50 (≈ 129 µM) | 12.5 (≈ 32.3 µM) | 12.5 (≈ 32.3 µM) | CC1CCCN(CC#CCn2nc(-c3ccccc3)n(-c3ccccc3)c2=O)C1 (stereo unspecified)

Structure (SMILES) | MIC [1] [µg/mL] | MIC [2] [µg/mL] | MIC [3] [µg/mL] | MIC [4] [µg/mL]
CC1COc2c(N3CCN(C)CC3)c(F)cc3c(=O)c(C(=O)O)cn1c23 (stereo unspecified) [OFLOXACIN] | – | 25 (≈ 69.2 µM) | 12.5 (≈ 34.6 µM) | 12.5 (≈ 34.6 µM)
CC(=O)N1CCN(c2ccc(OCC3COC(Cn4ccnc4)(c4ccc(Cl)cc4Cl)O3)cc2)CC1 (stereo unspecified) [KETOCONAZOLE] | 12.5 (≈ 23.5 µM) | – | – | –
